What was measured:
[1] = biological target: T1, Oecophylla smaragdina silk fibroin 1 (GA1), SEQ ID NO: 9 (Oecophylla smaragdina, UniProt A8IM81); assay: Haem b leached into green ant silk GA1 film; assay type: binding; conditions: signal at around 400 nm
T1 construct: film
T1 sequence (A8IM81 20-391): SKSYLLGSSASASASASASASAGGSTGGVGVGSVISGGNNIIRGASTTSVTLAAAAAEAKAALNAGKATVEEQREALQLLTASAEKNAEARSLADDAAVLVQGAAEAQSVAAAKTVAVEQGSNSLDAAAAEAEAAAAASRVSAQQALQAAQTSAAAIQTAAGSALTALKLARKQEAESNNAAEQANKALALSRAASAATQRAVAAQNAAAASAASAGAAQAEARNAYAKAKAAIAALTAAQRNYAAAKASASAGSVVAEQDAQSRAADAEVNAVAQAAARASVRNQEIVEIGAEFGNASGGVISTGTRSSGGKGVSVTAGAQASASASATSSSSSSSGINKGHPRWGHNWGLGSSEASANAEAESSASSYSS
Source text: (§1) Full length, recombinant honeybee silk proteins (AmelF3) without affinity purification tags, were produced by fermentation in Escherichia coli as described in Weisman et al. (2010). Full length, recombinant Weaver Ant/Green Ant (Oecophylla smaragdina) silk proteins (GA1, GA2, GA3, GA4) without affinity purification tags, were produced by fermentation in Escherichia coli following the same procedures as outlined in Weisman et al. (2010).
(§2) Alternatively, haem b was ‘leached’ into a pre-formed film. The AmelF3 material was formed as described in example 1. The silk material was soaked in a solution of haem b (0.5 mg/mL; haem b in excess) in 70% methanol solution for between 1 and 48 hours followed by washing with 70% methanol to remove any unbound haem b and dried at room temperature.
Transparent films from the Green Ant (Oecophylla smaragdina) (GA1-4) silk proteins were prepared as described above. Haem b in 70% methanol was leached into the preformed Green Ant silk film as described at Example 3. UV/Vis spectra were collected for Green Ant silk film after haem b had been leached.

[2] = biological target: T2, recombinant honeybee (Apis mellifera) silk protein AmelF3, unmodified, SEQ ID NO: 39 (Apis mellifera, UniProt A0ACM8QI31); assay: Binding of macrocycles/chelates to AmelF3 sponges or films (colour retained after washing, UV/Vis); conditions: sponge or film, qualitative
T2 construct: sponges and films
Description: as §1
AmelF3 sponges were prepared as described in example 1. […] The colour change observed with honeybee silk indicates a change in the coordination of the iron metal centre within the haem group, producing a material with a similar coordination to red haemoglobin. The colour was not removed by extensive washing with 70% methanol, 0.1M HCl or 0.1M NaCl.
An embodiment of the composition of the present invention was formed by co-drying a solution of AmelF3 and haem b. Briefly, 2 mg haem b and 20 mg AmelF3 silk sponge was dissolved in 1 mL of HFIP overnight at room temperature. The solution was aliquoted into either a cuvette or 24-well plate and dried at room temperature. The dried film was soaked overnight in 70% methanol to make the film insoluble in water.
as §2
AmelF3 films with different ratios of haem b to AmelF3 were prepared by co-drying haem and AmelF3 HFIP solutions. At low haem loadings (haem:protein molar ratios of 1:1 and 1:2), a sharp Soret peak at 404 nm was observed, indicative of all the haem being coordinated (FIG. 3). As the concentration of haem b relative to the protein was increased, the Soret peak broadened and shifted to lower wavelengths indicating an increase in the amount of uncoordinated haem (FIG. 3).
The ability of sponges generated from recombinant AmelF3 to bind a range of macrocyles was tested by adding a solution of the macrocmacrocycle containing an excess of the macrocycle to be tested to the AmelF3 sponge and observing the colour of the sponge and whether the sponge retained colour after washing. The strength of macrocycle binding was assessed qualitatively by assessing the intensity of the colour retained by the sponge after washing. Strong binding to the sponge refers to the finding that the macrocycle cannot be washed out with aqueous methanol, organic solvents, 0.1 M HCl or 0.1 M NaOH.
Films generated from recombinant honeybee silk protein AmelF3 containing dicyanocobyrinic acid heptamethyl ester were prepared as described in example 3. UV/Vis spectrum were recorded for a film generated from recombinant AmelF3 containing dicyanocobyrinic acid heptamethyl ester and a solution of dicyanocobyrinic acid heptamethyl ester without AmelF3 (FIG. 8).

[3] = biological target: T3, Apis mellifera AmelF3 (SEQ ID NO: 39) variant Tyr76Ala (Apis mellifera, UniProt A0ACM8QI31, Y95A); assay: Binding of chelates to AmelF3 Tyr76Ala sponges or films; conditions: sponge washed with aqueous methanol, qualitative
T3 construct: sponge or film
Description: (§3) Site directed mutagenesis of honeybee silk proteins was carried using methods known to the person skilled in the art. For example, to generate AmelF3 Tyr76Ala, the forward primer 5′-[…]-3′ (SEQ ID NO: 80) with the corresponding reverse primer was employed and site directed mutagenesis was carried out using Pfx 50 DNA polymerase from Invitrogen following the Pfx50 manufactures instructions. All AmelF3 mutants were expressed and purified using a similar procedure as the unmodified AmelF3 silk protein. To generate AmelF3 Tyr76His, the forward primer 5′-[…]-3′ (SEQ ID NO: 81) with the corresponding reverse primer was employed. To generate AmelF3 Ala97His, the forward primer 5′-[…]-3′ (SEQ ID NO: 82) was used.
To test whether Tyr76 was indeed the coordinating ligand, the present inventors replaced Tyr76 with an alanine using site directed mutagenesis of the AmelF3 silk gene.

[4] = biological target: T4, Apis mellifera AmelF3 (SEQ ID NO: 39) variant Y76A A97H (Apis mellifera, UniProt A0ACM8QI31, A116H/Y95A); assay: Binding of haem to AmelF3 Y76A A97H; conditions: sharp Soret peak at 413 nm
T4 sequence (A0ACM8QI31 20-335 Y95A/A116H): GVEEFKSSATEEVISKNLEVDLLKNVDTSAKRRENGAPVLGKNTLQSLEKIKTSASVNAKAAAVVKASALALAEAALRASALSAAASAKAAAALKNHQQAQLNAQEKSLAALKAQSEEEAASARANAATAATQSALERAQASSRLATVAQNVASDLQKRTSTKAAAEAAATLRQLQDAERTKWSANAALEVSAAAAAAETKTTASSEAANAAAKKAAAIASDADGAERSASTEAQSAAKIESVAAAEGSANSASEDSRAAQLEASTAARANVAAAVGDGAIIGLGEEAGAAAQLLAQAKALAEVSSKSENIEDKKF
Description: as §3
A coordinating His residue was introduced into AmelF3 with Y76A in the a-position of the coiled-coil.

T2 sequence (A0ACM8QI31 entry or part of it): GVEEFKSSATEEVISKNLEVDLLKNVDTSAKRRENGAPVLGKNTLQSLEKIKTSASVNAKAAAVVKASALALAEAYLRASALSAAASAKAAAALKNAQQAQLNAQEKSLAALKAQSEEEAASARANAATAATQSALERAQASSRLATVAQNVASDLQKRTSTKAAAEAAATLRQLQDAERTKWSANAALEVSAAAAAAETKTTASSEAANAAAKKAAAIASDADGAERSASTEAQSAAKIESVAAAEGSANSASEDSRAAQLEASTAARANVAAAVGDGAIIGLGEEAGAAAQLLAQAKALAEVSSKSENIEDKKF
T3 sequence (A0ACM8QI31 entry or part of it Y95A): as the sequence (A0ACM8QI31 entry or part of it) above, with Y76A counted along it

Question: Which results are given for C=CC1=C(C)c2cc3[nH]c(cc4nc(cc5[nH]c(cc1n2)c(C)c5CCC(=O)O)C(CCC(=O)O)=C4C)c(C)c3C=C.[Fe] [haem b]?
Answer: haem binding (in words) [1]: strongly bound haem; binding to silk protein (in words) [2]: strongly bound; binding to silk protein (in words) [3]: bound to the silk protein, the metal ion was not coordinated to the polypeptide; haem coordination (in words) [4]: indicative of histidine coordination

Reference: patent US10870875B2, “Metalloprotein compositions” (Commonwealth Scientific and Industrial Research Organisation, priority 2014, dated 2020)
